Experimental data published in patent publication US8318781B2, “G-protein-conjugated receptor agonist” (Japan Science and Technology Agency, priority 2007, dated 2012).
Entries after “also recorded” stand apart in the source; their conditions may differ. Read-outs that look alike come from different tables or passages of the source.

Experiments:
Type in all cases: cell-based
human GPR40 (hGPR40) [1] = molecular target: T1, human GPR40 (hGPR40) (Homo sapiens, UniProt O14842); test: ERK assay, screening for GPR40 ligands in cell line TXGPR40; conditions: TXGPR40 cells; for ERK activation for GPR40 (in words): FIGS. 1-4; for ERK/GPR40 10 μM: ligand 10 μM; for ERK/GPR40 10 μM / ERK/GPR40 100 μM: class relative to LA; for ERK/GPR40 100 μM: ligand 100 μM
T1 construct: expressed in transfected cells; doxycycline-inducible expression vector
T1 sequence (O14842 whole entry): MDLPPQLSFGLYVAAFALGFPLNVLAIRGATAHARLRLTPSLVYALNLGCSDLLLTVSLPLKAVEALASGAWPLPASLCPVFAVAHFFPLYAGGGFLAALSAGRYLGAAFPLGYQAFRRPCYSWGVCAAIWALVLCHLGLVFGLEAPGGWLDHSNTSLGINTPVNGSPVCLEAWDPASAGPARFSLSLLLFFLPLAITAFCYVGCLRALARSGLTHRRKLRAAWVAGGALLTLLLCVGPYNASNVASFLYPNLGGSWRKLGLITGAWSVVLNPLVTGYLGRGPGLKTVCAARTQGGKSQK
Experimental: (§1) This Test 1 was carried out by using the following materials and methods.
(§2) (1) In this test, the cell lines TXGPR40 and TXGPR120 were plated in 35-mm dishes in 5×10^5 cells/per dish.
(§3) Each ligand was dissolved in DMSO, diluted tenfold with the medium to make the total amount of 100 μl. DMSO was used as the negative control, and PMA (phorbol-12-myristate-13-acetate) was used as the positive control.
(§4) (3) The medium was removed from the dish of the cell to reduce the total amount of liquid to 0.9 ml.
(§5) (4) The ligand solution was added dropwise to the cell solution, and dispersed by gently shaking the dish, and allowed to react at room temperature.
(§6) (5) After 5 minutes of reaction, the medium was discarded, and the remaining medium on the dish was removed on ice using an aspirator.
(§7) (6) 150 μl of Lysis buffer (50 mM HEPES (pH 7.0), 150 mM NaCl, 10% glycerol, 1% NonidetP-40, 2 mM MgCl2, 1 mM EDTA, 100 mM NaF, 10 mM sodium phosphate, 1 mM Na3VO4, 20 mM β-glycerophosphate, and Proteinase inhibitor) were added, then the cells were collected using a cell scraper.
(§8) (1) The crude enzyme solution mixed with SDS Sample Buffer was subjected to ultrasonication with a sonifier, then incubated at 90° C. for five minutes.
(§9) (2) The mixture was vortexed and centrifuged at 15,000 rpm for five minutes at 4° C.
(§10) (3) The supernatant of the centrifuged sample was applied to two 7.5% acrylamide gel slabs placed in an electrophoresis tank filled with 1×SDS-PAGE Running Buffer (25 mM Tris, 0.2 M Glycin, and 1% SDS). Electrophoresis was carried out under a constant current of 40 mA for about 80 to 90 minutes.
(§11) (1) A PVDF membrane cut in the same size as the gel slab was immersed in methanol for about 15 seconds and then shaken in Transfer Buffer C solution (25 mM Tris, 0.02% SDS, 2% methanol and 40 mM 6-aminohexanoic acid) at room temperature to swell for 15 minutes. Filter paper for blotting was cut into a 10-cm square.
(§12) (2) On the blotting apparatus were placed sequentially two pieces of filter paper immersed in A solution (0.3 M Tris, 0.02% SDS and 2% methanol), two pieces of filter paper immersed in B solution (25 mM Tris, 0.02% SDS and 2% methanol), and the membrane thereon. The gel slab after electrophoresis, and finally two pieces of filter paper immersed in C solution was placed thereon, and the apparatus was closed.
(§13) (3) The protein was transferred to the membrane at 15 V for 30 minutes.
(§14) (1) The following procedure was all carried out at room temperature. After the protein transfer, the membrane was placed into a vial containing 1×TTBS (0.2 M Tris, 1.5 M NaCl, 0.2% Tween 20) and washed for 15 minutes.
(§15) (2) TTBS was discarded, and about 10 ml of Block Ace was added and blocked on a shaker for one hour.
(§16) (1) The primary antibodies (p44/42 MAP Kinase Antibody and Phospho-p44/42 MAP Kinase Antibody) were each diluted 1000-fold with TTBS.
(§17) (2) After blocking, the Block Ace solution was removed, the solution of the primary antibody was added and allowed to react on the shaker for two hours.
(§18) (1) The secondary antibody (Anti-rabbit Ig, Horseradish Peroxidase linked F(ab′)2 fragments) was diluted 5000-fold with TTBS.
(§19) (2) The primary antibody solution was removed and the membrane was washed three times on the shaker in TTBS for five to ten minutes each.
(§20) (3) TTBS was removed and the solution of secondary antibody was added and left for 1 hour on the shaker.
(§21) (1) 2 ml each of Detection Reagent 1 and Detection Reagent 2 from ECL kit were mixed together on ice.
(§22) (2) The solution of secondary antibody was removed from the membrane reacted with the secondary antibody and then washed three times on the shaker in TTBS for five minutes each.
(§23) (3) The liquid was thoroughly removed from the membrane, which was then placed in a plastic bag, and 2 ml of the Detection Reagent mixture was added per each membrane.
(§24) (4) The membrane was kept in contact with a film in the cassette for one to five minutes, and the film was developed using an automatic developing machine.

human GPR120 (hGPR120) [2] = molecular target: T2, human GPR120 (hGPR120) (Homo sapiens, UniProt Q5NUL3); test: ERK assay, screening for GPR120 ligands in cell line TXGPR120;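 as to ERK/GPR120 10 μM: signals normalized between DMSO and PMA controls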; conditions: for ERK activation for GPR120 (in words) / ERK/GPR120 10 μM / ERK/GPR120 100 μM: TXGPR120 cells; for ERK activation for GPR120 (in words): FIGS. 5-8; for ERK/GPR120 10 μM: ligand 10 μM; for ERK/GPR120 10 μM / ERK/GPR120 100 μM: class relative to LA; for ERK/GPR120 100 μM: ligand 100 μM
T2 construct: expressed in transfected cells; doxycycline-inducible expression vector
T2 sequence (Q5NUL3 1-361): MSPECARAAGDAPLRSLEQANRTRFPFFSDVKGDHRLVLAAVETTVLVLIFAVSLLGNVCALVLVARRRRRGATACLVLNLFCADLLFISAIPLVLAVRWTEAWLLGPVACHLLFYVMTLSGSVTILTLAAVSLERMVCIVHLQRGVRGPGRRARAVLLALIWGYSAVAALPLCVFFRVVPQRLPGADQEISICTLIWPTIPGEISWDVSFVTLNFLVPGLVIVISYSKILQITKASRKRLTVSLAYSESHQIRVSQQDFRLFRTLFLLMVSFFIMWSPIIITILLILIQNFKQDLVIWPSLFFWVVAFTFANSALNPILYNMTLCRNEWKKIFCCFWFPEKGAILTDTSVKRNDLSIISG
Experimental: as §1, §2, §3, §4, §5, §6, §7, §8, §9, §10, §11, §12, §13, §14, §15, §16, §17, §18, §19, §20, §21, §22, §23, §24

human GPR40 (hGPR40) [3] = molecular target: T1, human GPR40 (hGPR40); test: Determination of intracellular Ca2+ concentration (FLIPR), cell line TXGPR40; conditions: for agonistic activity for GPR40 (in words): cells in which GPR40 has been transgenically expressed; for [Ca^2+]/GPR40 10 μM (ratio vs. LA): relative fluorescence intensity vs LA at 10 μM
Experimental: (§25) (1) In this test, The cell lines TXGPR40, TXGPR120 and GPR120/Flp-in were plated onto a collagen-coated black 96-well plate in 2×10^5 cells/well. The 96-well plates containing the cells were centrifuged and treated with Doxycycline (final concentration 10 μg/mL), incubated in a CO2 incubator for 21 hours, then used for assay.
(§26) (2) The ligand used in this test includes NCP04, NCP14, NCG20, NCG21, NCG22, NCG23, NCP02, NCP03, NCP05, NCP06, NCG14, NCG17, NCG19, NCG28, NCG29, NCG30, NCG31, NCG34, NCG35, NCG37, NCG38, NCG44, NCG45, NCG46, and NCG54. Each ligand was dissolved in DMSO and adjusted to the concentration of 10 mM, then diluted with Hanks' Balanced Salt Solution (pH 7.4) containing 20 mM HEPES (referred to as FLIPR buffer hereinafter) to the final concentration of 1 to 100 μM. 1% DMSO was used as the negative control, and LA was used as the positive control.
(§27) The ligands and controls were placed in different 96-well plates from the plates for the cells.
(§28) (3) The 96-well plate containing the cells was removed from the CO2 incubator. A fluorescent dye prepared in a twofold higher concentration (Ca Assay Kit Component A diluted with FLIPR Buffer) was added in 50 μL/well, then allowed to stand in the dark at room temperature for one hour.
(§29) (4) After one hour, the 96-well plate containing the cells and the 96-well plate in which ligands and controls were prepared were set on FLIPR (Fluorometric Imaging Plate Reader) for determination.
(§30) (5) Fluorometry using FLIPR was carried out at a laser output of 1.0 W for five minutes. […] after the start of the determination, the ligand (25 μL) was added dropwise to the cell plate at a rate of 50 μL/sec. The intensity of fluorescence was automatically digitized by the application program installed in the FLIPR from the image taken by the CCD camera (with exposure time of 0.40 sec). The interval of data sampling was one second for the initial one minute after the start of operation, and six seconds for the subsequent four minutes.
(§31) (6) The maximum fluorescence intensity was obtained from the data showing the change in the fluorescence intensity over time observed in each well. The maximum fluorescence intensity was plotted against ligand concentration, and pEC50 was calculated. The ratio of the fluorescence intensity for each ligand to LA at 10 μM was calculated as the relative intensity of each ligand.

human GPR120 (hGPR120) [4] = molecular target: T2, human GPR120 (hGPR120); test: Determination of intracellular Ca2+ concentration (FLIPR), cell line TXGPR120; conditions: for agonistic activity for hGPR120 (in words): cells in which GPR120 has been transgenically expressed; for [Ca^2+]/GPR120 10 μM (ratio vs. LA): relative fluorescence intensity vs LA at 10 μM
Experimental: as §25, §26, §27, §28, §29, §30, §31

human GPR120 (hGPR120) [5] = molecular target: T2, human GPR120 (hGPR120); test: Determination of intracellular Ca2+ concentration (FLIPR), cell line GPR120/Flp-in; conditions: for [Ca^2+]/GPR120/Flp-In 10 μM (ratio vs. LA): relative fluorescence intensity vs LA at 10 μM
Experimental: as §25, §26, §27, §28, §29, §30, §31

[6] = TXGPR40 cells, maximum fluorescence intensity vs ligand concentration, read-out: [Ca^2+]/GPR40 pEC50 (converted)
[7] = GPR120/Flp-in cells, maximum fluorescence intensity vs ligand concentration, read-out: [Ca^2+]/GPR120/Flp-In pEC50 (converted)

Row | Structure (SMILES) | ERK activation for GPR40 (in words) (human GPR40 (hGPR40) [1]) | ERK/GPR40 10 μM (human GPR40 (hGPR40) [1]) | ERK/GPR40 100 μM (human GPR40 (hGPR40) [1]) | ERK activation for GPR120 (in words) (human GPR120 (hGPR120) [2]) | ERK/GPR120 10 μM (human GPR120 (hGPR120) [2]) | ERK/GPR120 100 μM (human GPR120 (hGPR120) [2]) | EC50 (human GPR40 (hGPR40) [3]) | agonistic activity for GPR40 (in words) (human GPR40 (hGPR40) [3]) | [Ca^2+]/GPR40 10 μM (ratio vs. LA) (human GPR40 (hGPR40) [3]; TXGPR40 cells) | EC50 (human GPR120 (hGPR120) [4]) | agonistic activity for hGPR120 (in words) (human GPR120 (hGPR120) [4]) | [Ca^2+]/GPR120 10 μM (ratio vs. LA) (human GPR120 (hGPR120) [4]; TXGPR120 cells) | EC50 (human GPR120 (hGPR120) [5]) | [Ca^2+]/GPR120/Flp-In 10 μM (ratio vs. LA) (human GPR120 (hGPR120) [5]; GPR120/Flp-in cells) | EC50 (human GPR40 (hGPR40) [3]; [6]) | EC50 (human GPR120 (hGPR120) [5]; [7]) | selectivity for GPR120 in ERK assay (in words) (human GPR120 (hGPR120) [2]; GPR120 versus GPR40) | selectivity between GPR40 and GPR120 (in words), from Tables 3 and 4 (human GPR120 (hGPR120) [4]; GPR40 versus GPR120, Ca2+ and ERK results) | EC50 (human GPR120 (hGPR120) [4]; TXGPR120 cells, maximum fluorescence intensity vs ligand concentration, read-out: [Ca^2+]/GPR120 pEC50 (converted))
1 | O=C(O)CCCc1ccc(OCCN(c2ccccc2)c2cc(Cl)ccn2)cc1 [NCG35] | strongly activated ERK | +++ (+++ denotes a higher value than LA) | +++ (+++ denotes a higher value than LA) | strongly activate ERK | +++ (+++ denotes a higher value than LA) | +++ (+++ denotes a higher value than LA) | 7.76 µM | showed a specific reactivity | 0.68 | 16.2 µM | exhibit a similar effect | 0.61 | 4.57 µM | 1.00 |  |  |  |  | 
2 | CCCCCN(CCOc1ccc(CCC(=O)O)cc1)c1ccccn1 [NCP05] |  | +++ (+++ denotes a higher value than LA) | +++ (+++ denotes a higher value than LA) |  | + (+ denotes 0 to 100% of LA) | +++ (+++ denotes a higher value than LA) |  | showed a specific reactivity | 1.22 |  | exhibit a similar effect | 0.00 |  | 0.45 | 5.62 µM | 11.5 µM |  |  | 
3 | CCN(CCOc1ccc(CCC(=O)O)cc1)c1ccccn1 [NCP02] |  | + (+ denotes 0 to 100% of LA) | +++ (+++ denotes a higher value than LA) |  | + (+ denotes 0 to 100% of LA) | + (+ denotes 0 to 100% of LA) |  | showed a specific reactivity | 1.47 |  | exhibit a similar effect | 0.00 |  | 0.45 | 3.39 µM | 15.5 µM |  |  | 
4 | O=C(O)CCc1ccc(OCCCN(c2ccccc2)c2ccccn2)cc1 [NCG28] | activates ERK at lower concentrations; also recorded: strongly activated ERK | +++ (+++ denotes a higher value than LA) | +++ (+++ denotes a higher value than LA) | activates ERK | ++ (++ denotes 50 to 100% of LA) | +++ (+++ denotes a higher value than LA) |  | showed a specific reactivity | 1.37 |  | exhibit a similar effect | 0.02 |  | 0.54 | 1.12 µM | 6.76 µM |  |  | 
5 | O=C(O)CCCc1ccc(OCCN(c2ccccc2)c2cccnc2)cc1 [NCG30] | strongly activated ERK |  | + (+ denotes 0 to 100% of LA) | strongly activate ERK | ++ (++ denotes 50 to 100% of LA) | +++ (+++ denotes a higher value than LA) |  |  | 0.01 |  | exhibit a similar effect | 0.71 |  | 0.88 |  | 3.72 µM | selective for GRP120 | acting relatively mildly for GPR40 but acting strongly for GPR120 | 15.5 µM
